21 compounds from patent US11014908B2, “Chemical compounds” (Pfizer Inc., priority 2018, dated 2021) can be followed below.

SMILES strings stand for the structures.

In assay [1] the target is T1, purified sickle cell hemoglobin (HbS) (Homo sapiens, UniProt P68871+P69905, E7V).
T1 construct: HbS was obtained from the blood of homozygous S/S patients; from tissue; host or cells: red blood cells of homozygous S/S patients
Nature of the assay: Binding affinity to purified HbS by Surface Plasmon Resonance (SPR). To be noted: crosslinked biotinylated HbS, 1:1 binding model. How it is done:
Binding Affinity, Kd (uM)
The binding affinity for compounds to purified sickle cell hemoglobin (HbS) was determined using Surface Plasmon Resonance (SPR). Patient Sickle Cell blood was obtained from Boston Children's Hospital in accordance with Institutional Review Board protocols. HbS was obtained from the blood of homozygous S/S patients, and purified using the method described in: Antonini and Brunori, Hemoglobin and Myoglobin in their Reactions with Ligands. Amsterdam, London, North-Holland Publishing Company, 1971. Whole blood was separated into red blood cell and plasma components by centrifugation, after which the plasma was decanted and discarded. Packed red blood cells were washed with normal saline (0.9% NaCl) and then lysed by 2:1 dilution with cold deionized water. The hemolysate was centrifuged to remove cellular debris, and further purified with the addition of Drabkin's Buffer (2.8 M potassium phosphate), and centrifugation with Celite®. Organic phosphates (2,3-BPG) were removed via gel filtration with Sephadex® G-25. HbS and wild-type hemoglobin, hemoglobin A (HbA), were separated by […], using diethylaminoethyl (DEAE)-Sepharose® fast flow, and eluted using a pH gradient from pH 8.5-pH 7.5. Purity of the resulting HbS and HbA was determined by native gel electrophoresis and HbS fractions used further.
To stabilize the tetrameric structure of hemoglobin, HbS was crosslinked between the beta subunits (Lys82-Lys82) using bis(3,5-dibromosalicyl) fumarate, as described in: Shibayama N. et al, J Am Chem Soc 2014, 136, 13, 5097-5105 and Shibayama N. et al, Biochemistry 1991, 39, 33, 8158-8165). Crosslinked HbS was subsequently biotynylated and captured on a custom made Streptavidin sensor to achieve protein density of 4000 to 5000 resonance units (RUs) on the surface. Compound binding to HbS using SPR was tested on Sierra Sensors MASS-1 instrument. The running buffer contained 100 mM Potassium Phosphate, pH 7.5, 0.005% Tween-20, 1 mM ethylenediaminetetraacetic acid (EDTA), 0.1 mg/mL bovine serum albumin with 1% DMSO. Compound samples were injected at a flow rate of 30 μL/min for 2 minutes association and at least 5 minutes of dissociation time. A 2- or 3-fold dilution series containing at least 4 concentrations were tested for each compound. The dose range was selected based on the activity of the compounds in biochemical assays, when available. Multiple blank injections of running buffer were run before and after each compound series to allow blank subtraction for compound data in the analysis software. Positive controls were run in each experiment to monitor and maintain the activity of HbS on the surface. A DMSO curve was run at the beginning of each data set to apply an excluded volume correction to the data during analysis. The data were processed and analyzed using Sierra Sensors and Scrubber 2.0 software. The binding affinities (dissociation constant Kd) were calculated by fitting the sensorgrams to a 1:1 binding model.

The next assay deals with T2, HbS (Homo sapiens, UniProt P68871+P69905, E7V).
T2 construct: HbS was obtained from the blood of homozygous S/S patients; from tissue; host or cells: red blood cells of homozygous S/S patients
Nature of the assay: 'R'-'T' assay (conversion of oxy HbS to deoxy HbS under deoxygenating conditions). Type of assay: biochemical. Conditions: 50% inhibition of HbS 'R'-'T' conversion; 3 uM HbS, <1% O2. Here is the method: Conversion from oxy (R, relaxed state) to deoxy (T, tense state) HbS in the presence of compound was performed to determine the ability of compounds to stabilize the oxy (R) state under deoxygenating conditions. The assay run was similar to the ‘Oxygen dissociation assay’ described in Oksenberg et al, Br J Haematology, 2016, 175, 141-153.
Assay ready compound plates were prepared by first preparing a master serial dilution plate from a 30 mM initial compound stock in 100% DMSO. From this master serial dilution plate, 167 nL of the desired compound concentration was delivered to the assay ready plates using acoustical dispensing. Plates were frozen at −20° C. until needed. Purified HbS-O2 (i.e. oxy HbS) was diluted to 3 uM in 100 mM potassium phosphate buffer, pH=7.4. 50 uL of 3 uM stock solution was added to each well of the assay ready plate and mechanically mixed eight times. Following mixing the plates were covered and incubated at room temperature for one hour with moderate shaking. Following incubation, the plates were placed in a deoxygenated environment (<1% O2) for two hours, and the conversion to deoxy HbS monitored as a function of time. Oxygenated and deoxygenated forms of hemoglobin were detected using the absorbance of the Soret peaks at 415 and 430 nm respectively, and absorbance measurements (optical density, OD) were taken at 0, 90 and 120 minutes. Background absorbance for correction was collected at 700 nm.
Data were analyzed by first subtracting baseline absorbance at 700 nm from 415 nm and 430 nm data at each timepoint, and then taking the ratio of 415/430 nm data (Ratio=[(OD415−OD700)/(OD430−OD700)]. The effect at each timepoint was calculated using the ratios from the previous calculation at time 0 and each time point of interest (Effect^time x=Ratio^time x/Ratio^time 0). Percent effect was calculated by comparing the effects of compound versus HbS only with the effects observed by the positive control compound tucaresol (percent effect=[(effect^time x compound−effect^time x HbS)/(effect^time x tucaresol−effect^time x HbS)]×100). Data were reported as the percent effect for a single point. Calculations to determine the concentration of compound for 50% inhibition (IC50 (uM)) of the HbS ‘R’-‘T’ conversion were based on the percent effect at varying compound concentration.

A word on the Kd: it is the equilibrium constant for the complex coming apart. High values mean weaker binding, low ones tighter binding. In general, IC50 refers to the midpoint of a concentration-inhibition curve. Read a high IC50 as weaker potency in that assay. For `C[C@H](Oc1cc2cc(F)ccc2nc1N)c1cc(C(N)=O)c(F)cc1-n1cccn1` [Example 1, 5-{(1S)-1-[(2-amino-6-fluoroquinolin-3-yl)oxy]ethyl}-2-fluoro-4-(1H-pyrazol-1-yl)benzamide], the Kd in assay [1] worked out at 20 nM. Moreover, the IC50 against HbS worked out at 4500 nM. Turning to `C[C@H](Oc1cc2cc(F)ccc2nc1N)c1cc(C(=O)N[C@H]2C[C@H](O)C2)ccc1-n1cccn1` [Example 14, 3-{(1S)-1-[(2-amino-6-fluoroquinolin-3-yl)oxy]ethyl}-N-(trans-3-hydroxycyclobutyl)-4-(1H-pyrazol-1-yl)benzamide], the Kd in assay [1] is 41 nM. At HbS, half-maximal inhibition (IC50) required 4300 nM. The corresponding values for `C[C@H](Oc1cc2cc(F)ccc2nc1N)c1ncc(F)cc1-n1cccn1` [Example 33, 6-fluoro-3-{(1S)-1-[5-fluoro-3-(1H-pyrazol-1-yl)pyridin-2-yl]ethoxy}quinolin-2-amine] are 34 nM and 4300 nM. The corresponding values for `C[C@H](Oc1cc2cc(F)ccc2nc1N)c1nc(OCC(=O)O)ccc1-n1cccn1` [Example 40, {[6-{(1S)-1-[(2-amino-6-fluoroquinolin-3-yl)oxy]ethyl}-5-(1H-pyrazol-1-yl)pyridin-2-yl]oxy}acetic Acid] are 164 nM and 5270 nM. The compound `C[C@H](Oc1cc2cc(F)ccc2nc1N)c1cc2c(cnn2CC(N)=O)cc1-n1cccn1` [Example 70, 2-[6-{(1S)-1-[(2-amino-6-fluoroquinolin-3-yl)oxy]ethyl}-5-(1H-pyrazol-1-yl)-1H-indazol-1-yl]acetamide] displayed a Kd in assay [1] of 13 nM. This compound displayed an IC50 on HbS of 4600 nM.

Consider `C[C@H](Oc1cc2cc(C(N)=O)c(F)cc2nc1N)c1nc2[nH]ncc2cc1-n1cccn1` [Example 76, 2-amino-7-fluoro-3-{(1S)-1-[5-(1H-pyrazol-1-yl)-1H-pyrazolo[3,4-b]pyridin-6-yl]ethoxy}quinoline-6-carboxamide], for which binding in assay [1] was characterised by a dissociation constant (Kd) of 14 nM. The compound also displayed an IC50 at HbS of 28900 nM. Regarding `C[C@H](Oc1cc2cc(C(N)=O)ccc2nc1N)c1cc2c(cnn2CCO)cc1-n1cccn1` (single isomer, unassigned) [Example 74], the Kd in assay [1] is 59 nM. At HbS, this compound had an IC50 of 4280 nM. In assay [1], `C[C@H](Oc1cc2cc(F)ccc2nc1N)c1cc(CC(=O)O)ccc1-n1cccn1` (single isomer, unassigned) [Example 8] displayed a Kd of 271 nM. Further, the IC50 against HbS turned out to be 7180 nM.

In turn, `C[C@H](Oc1cc2cc(F)ccc2nc1N)c1nc2[nH]ncc2cc1-n1cccn1` [Example 68, 6-fluoro-3-{(1S)-1-[5-(1H-pyrazol-1-yl)-1H-pyrazolo[3,4-b]pyridin-6-yl]ethoxy}quinolin-2-amine] gave a Kd in assay [1] of 15 nM. Also, at HbS, the midpoint of inhibition, the IC50, lay at 4610 nM. Turning to `Cc1nc2cc(-n3cccn3)c([C@H](C)Oc3cc4cc(F)ccc4nc3N)cc2[nH]1` [Example 64, 6-fluoro-3-{(1S)-1-[2-methyl-5-(1H-pyrazol-1-yl)-1H-benzimidazol-6-yl]ethoxy}quinolin-2-amine], in assay [1], the Kd was 220 nM. On HbS, this compound had an IC50 of 5730 nM.

The compound `C[C@H](Oc1cc2cc(F)ccc2nc1N)c1cc(C(=O)NCCCO)ccc1-n1cccn1` [Example 13, 3-{(1S)-1-[(2-amino-6-fluoroquinolin-3-yl)oxy]ethyl}-N-(3-hydroxypropyl)-4-(1H-pyrazol-1-yl)benzamide] displayed a Kd in assay [1] of 65 nM. At HbS, this compound returned a 50% inhibitory concentration (IC50) of 4330 nM.

Take `C[C@H](Oc1cc2cc(F)ccc2nc1N)c1cc2nn(CC(=O)O)cc2cc1-n1cccn1` [Example 71, [6-{(1S)-1-[(2-amino-6-fluoroquinolin-3-yl)oxy]ethyl}-5-(1H-pyrazol-1-yl)-2H-indazol-2-yl]acetic Acid]: the affinity in assay [1], expressed as Kd, was 48 nM. The IC50 at HbS amounted to 4610 nM.

In assay [1], `Cc1cc2nc(N)c(O[C@@H](C)c3nc4c(cnn4CCO)cc3-n3cccn3)cc2cn1` [Example 77, 2-[6-{(1S)-1-[(2-amino-7-methyl-1,6-naphthyridin-3-yl)oxy]ethyl}-5-(1H-pyrazol-1-yl)-1H-pyrazolo[3,4-b]pyridin-1-yl]ethanol] had a Kd of 195 nM. Also, half-maximal inhibition on HbS (IC50) was put at 6300 nM. `COc1ccc(-n2cccn2)c([C@H](C)Oc2cc3cc(F)ccc3nc2N)n1` [Example 57, 6-fluoro-3-{(1S)-1-[6-methoxy-3-(1H-pyrazol-1-yl)pyridin-2-yl]ethoxy}quinolin-2-amine]: in assay [1], binding was put at a Kd of 184 nM. Further, 4840 nM corresponded to half-maximal inhibition on HbS (IC50). For the compound `C[C@H](Oc1cc2cc(F)ccc2nc1N)c1cc(C(=O)NCC(=O)O)ccc1-n1cccn1` [Example 10, N-[3-{(1S)-1-[(2-amino-6-fluoroquinolin-3-yl)oxy]ethyl}-4-(1H-pyrazol-1-yl)benzoyl]glycine], in assay [1], the Kd came out at 211 nM. Also, it took 5860 nM to reach half-maximal inhibition on HbS (IC50). The compound `CC(Oc1cc2cc(C(N)=O)c(F)cc2nc1N)c1cc2[nH]ncc2cc1-n1cccn1` (stereo in doubt) [Example 65, 2-amino-7-fluoro-3-{(1R)-1-[5-(1H-pyrazol-1-yl)-1H-indazol-6-yl]ethoxy}quinoline-6-carboxamide] gave a Kd in assay [1] of 15 nM. The same compound came in with an IC50 against HbS of 6170 nM. The corresponding values for `C[C@H](Oc1cc2cc(F)cc(F)c2nc1N)c1cc2c(cnn2CCO)cc1-n1cccn1` [Example 72, 2-[6-{(1S)-1-[(2-amino-6,8-difluoroquinolin-3-yl)oxy]ethyl}-5-(1H-pyrazol-1-yl)-1H-indazol-1-yl]ethanol] are 11 nM and 3030 nM. As for `C[C@H](Oc1cc2cc(F)cc(F)c2nc1N)c1cc2c(cnn2CC(=O)O)cc1-n1cccn1` [Example 69, [6-{(1S)-1-[(2-amino-6,8-difluoroquinolin-3-yl)oxy]ethyl}-5-(1H-pyrazol-1-yl)-1H-indazol-1-yl]acetic Acid], the Kd in assay [1] amounted to 10 nM. Further, at HbS, it took 4670 nM to reach half-maximal inhibition (IC50). In assay [1], `C[C@H](Oc1cc2cc(F)cc(F)c2nc1N)c1cc(-c2noc(=O)[nH]2)ccc1-n1cccn1` [Example 80, (S)-3-(3-(1-((2-amino-6,8-difluoroquinolin-3-yl)oxy)ethyl)-4-(1H-pyrazol-1-yl)phenyl)-1,2,4-oxadiazol-5(4H)-one] showed a dissociation constant Kd of 36 nM. Take `C[C@H](Oc1cc2cc(C(N)=O)ccc2nc1N)c1nc2[nH]ncc2cc1-n1cccn1` [Example 62, 2-amino-3-{(1S)-1-[5-(1H-pyrazol-1-yl)-1H-pyrazolo[3,4-b]pyridin-6-yl]ethoxy}quinoline-6-carboxamide]: binding in assay [1] was put at a Kd of 40 nM. In turn, `C[C@H](Oc1cc2cc(F)ccc2nc1N)c1cc(S(N)(=O)=O)ccc1-n1cccn1` [Example 7, 3-{(1S)-1-[(2-amino-6-fluoroquinolin-3-yl)oxy]ethyl}-4-(1H-pyrazol-1-yl)benzenesulfonamide] returned a Kd in assay [1] of 126 nM.
